Tests used:
Experiment in all cases: relative viability (cell count relative to DMSO-treated control) (fraction of DMSO control); higher = more viable cells / less drug effect
COLO858 = tested on: COLO858
Experimental: (§1)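 BRAF V600E/D melanoma cell lines were seeded in 96-well plates, treated in 4 replicates with seven doses (3.16 nM to 3.16 uM) of RAF/MEK inhibitors for 24, 48 or 72 h, and stained with Hoechst 33342 (nuclei) and DEVD-NucView488 caspase-3 substrate. Plates were imaged on an Operetta. Relative viability is the cell count normalised to a DMSO-treated control; apoptosis fraction is the fraction of NucView488-positive nuclei.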

LOXIMVI = details: 24 h
Experimental: as §1

MMACSF = tested on: MMACSF
Experimental: as §1

RVH421 = tested on: RVH421
Experimental: as §1

SKMEL28 = tested on: SKMEL28
Experimental: as §1

WM1552C = tested on: WM1552C
Experimental: as §1

CN(C)CCOc1ccc(-c2nc(-c3ccncc3)c(-c3ccc4c(c3)CC/C4=N\O)[nH]2)cc1
relative viability
Details	0.00316 µM	0.01 µM	0.0316 µM	0.1 µM	0.316 µM	1 µM	3.16 µM
COLO858, 24 h	0.866	1.21	1.2	1	0.946	0.883	0.811
COLO858, 48 h	0.963	1.03	0.929	0.584	0.431	0.341	0.277
COLO858, 72 h	1.07	1.21	0.906	0.605	0.494	0.381	0.29
MMACSF, 24 h	1.03	0.999	0.9993	1.03	0.964	0.977	1.02
MMACSF, 48 h	0.955	1.01	0.925	0.787	0.791	0.727	0.684
MMACSF, 72 h	0.953	0.952	0.779	0.6	0.529	0.423	0.341
RVH421, 24 h	0.994	0.9379	1.04	1.034	1.01	1.02	0.929
RVH421, 48 h	1.07	0.849	0.803	0.689	0.672	0.638	0.513
RVH421, 72 h	0.983	0.995	0.872	0.702	0.641	0.575	0.542
SKMEL28, 48 h	0.835	1.45	1.59	1.29	1.1	0.906	0.643
SKMEL28, 72 h	1.08	0.92	0.897	0.734	0.542	0.544	0.373
WM1552C, 24 h	0.999	1.036	0.986	1.08	1.03	1.088	1.05
WM1552C, 48 h	1.01	1.01	0.994	0.994	0.954	0.87	0.82
WM1552C, 72 h	1.03	1.16	1.15	1.03	0.899	0.699	0.616

LOXIMVI
Details	relative viability
0.00316 µM	0.935
0.01 µM	1.01
0.0316 µM	1.02
0.1 µM	0.997
0.316 µM	1.02
1 µM	0.987
3.16 µM	0.903

Cc1ccc(NC(=O)c2cccc(C(C)(C)C#N)c2)cc1Nc1ccc2ncn(C)c(=O)c2c1 [AZ628]
relative viability
Details	0.00316 µM	0.01 µM	0.0316 µM	0.1 µM	0.316 µM	1 µM	3.16 µM
COLO858, 24 h	0.923	1.12	1.16	0.982	0.938	0.902	0.816
COLO858, 48 h	0.965	1.08	0.778	0.48	0.368	0.319	0.248
COLO858, 72 h	1.05	1.13	0.716	0.475	0.392	0.307	0.213
MMACSF, 24 h	1.059	0.978	1	0.982	0.988	1	1.034
MMACSF, 48 h	0.938	1.02	0.913	0.771	0.737	0.56	0.517
MMACSF, 72 h	0.917	0.833	0.641	0.519	0.367	0.223	0.141
RVH421, 24 h	0.929	0.9636	1.05	1.06	1.02	0.993	0.908
RVH421, 48 h	1.06	0.944	0.81	0.666	0.696	0.65	0.544
RVH421, 72 h	0.956	0.915	0.741	0.58	0.537	0.47	0.412
SKMEL28, 48 h	0.879	1.4	1.44	1.16	0.947	0.896	0.614
SKMEL28, 72 h	1.13	1.01	0.791	0.526	0.507	0.489	0.442
WM1552C, 24 h	0.959	0.982	0.99	1.01	0.974	0.996	0.928
WM1552C, 48 h	1.01	1	0.964	0.772	0.665	0.647	0.644
WM1552C, 72 h	1.03	1.11	0.948	0.736	0.555	0.484	0.442

LOXIMVI
Details	relative viability
0.00316 µM	0.963
0.01 µM	0.949
0.0316 µM	0.956
0.1 µM	0.942
0.316 µM	0.86
1 µM	0.862
3.16 µM	0.822
